Data on 22 compounds can be found in patent publication US20250154109A1, “SODIUM CHANNEL BLOCKING COMPOUNDS, DERIVATIVES THEREOF, AND METHODS OF THEIR USE” (LATIGO BIOTHERAPEUTICS, INC, priority 2022, published 2025).

The subject of data set [1] is human plasma protein. In words: Human plasma protein binding by equilibrium dialysis. The data set is classed as in vitro ADME. To be noted: equilibrium dialysis. The source says: (§1) Table 3 presents the human and rat plasma protein binding data (% unbound) for the compounds of Table 2.
(§2) Comparator compounds A, B, C have been previously reported as inhibitors of Na, 1.8 in WO2020/092667. Comparator D, not previously reported, is offered as an additional sulfonamido example.

Data set [2] relates to rat plasma protein. The data set is described as follows: Rat plasma protein binding by equilibrium dialysis. The data set is classed as in vitro ADME. The following applies: for Rat Plasma, Unbound %: equilibrium dialysis.
From the text: as §1, §2
On the technique in general: In equilibrium dialysis free small molecules cross a membrane that holds back macromolecules.

Data set [3] concerns the target human Nav1.8 (Homo sapiens, UniProt Q9Y5Y9). The data set is described as follows: Sophion Qpatch II assay (automated patch clamp). The class given is cell-based. The following applies: resting state block (TP1 measurement), human Nav1.8 HEK293 cells, read-out: P1 IC50. How it is done: Compounds were tested on recombinant human Nav1.8/01 stably transfected HEK293 (Eurofins, CYL3025, St. Charles, MO) cells using the Qpatch II system (Sophion Bioscience A/S, Ballerup—Denmark), an automated patch clamp device. Cells were cultured at 37° C./5% CO2 in DMEM/F-12 supplemented with 10% fetal bovine serum, lx Non-Essential Amino Acids, and selection antibiotics (0.625 μg/mL Puromycin, 400 μg/mL Geneticin, and 100 μg/mL Hygromycin). One or two days prior to recording, cells were moved to a lower temperature 30° C./5% CO2 incubator to increase surface expression of the channels. On the day of the recordings, cells in culture dishes were washed twice with Ca^2+—Mg^2+ free DPBS and treated with Detachin (Genlantis, San Diego) for 3 minutes and then resuspended in Serum Free Medium (EX-CELL® ACF CHO Medium for Cell Culture (Sigma-Aldrich) supplemented with 0.04 mg/mL soybean trypsin Inhibitor and 25 mM HEPES (all components supplied by Sigma-Aldrich, St. Louis, MO) and allowed to recover for a minimum of 20 minutes in the onboard Qstirrer. All experiments were performed at ambient temperature. Intracellular solution contained (mM): CsCl, 50; CsF, 90; MgCl2, 2; EGTA, 5; HEPES, 10; pH adjusted to 7.2 with CsOH. Extracellular solution contained (mM): NaCl, 137; KCl, 4; CaCl2), 3.8; MgCl2, 1; HEPES, 10; Glucose, 10; pH adjusted to 7.4 with NaOH. 500 nM tetrodotoxin (TTX) was added to the extracellular solution to block endogenous TTX-sensitive sodium currents.
Compounds were tested in an interleaved manner across two cohorts of wells to develop an aggregate 8-point concentration response curve. Final concentrations include 0.5% DMSO and 0.03% pluronic Acid. The concentration range spanned a range from 0.01-300 nM. Compounds were diluted 1:10 with extracellular solution within their respective cohort. (R)-2-(4-fluoro-2-methylphenoxy)-N-(3-(S-methylsulfonimidoyl)phenyl)-5-(trifluoromethyl)nicotinamide served as a positive control while DMSO (0.5% by volume) served as a vehicle control to ascertain assay performance.
Whole cell patch clamp recordings were conducted according to Sophion standard procedure for Qpatch II®. Cells were held at a holding potential of −120 mV. A depolarizing step to 10 mV for 30 ms was applied (TP1 measurement), followed by a hyperpolarization step to −100 mV for 20 ms. Due to instability observed at long depolarized potentials, there were no second TP2 measurements attempted. Inter-sweep interval was 15 sec. Following establishment of the whole-cell configuration in extracellular solution, cells were washed twice in extracellular solution containing 0.5% DMSO and 0.03% pluronic acid to stabilize the baseline current. Compounds were then applied by the Qpatch II system into each well in an ascending manner within cohort and the current was recorded for five minutes for each concentration. Percent of current remaining was determined by taking the average of the last 5 sweeps within each concentration and normalizing to the latest pre-compound saline period. The potency of the compounds was assessed on resting state block (TP1 measurement) only to obtain IC50 values. Wells whose initial sodium current magnitude were below 2 nA or whole cell resistance fell below 100 MQ were excluded from analysis.
Examples 220 to 224, Examples 237 to 257 and Example 259 are assayed using Sophion Qpatch II assay described above.
A general note: Patch clamp records ionic current or voltage across a cell membrane.

Structures are written as SMILES.

Chain of human Nav1.8 (Q9Y5Y9 whole entry): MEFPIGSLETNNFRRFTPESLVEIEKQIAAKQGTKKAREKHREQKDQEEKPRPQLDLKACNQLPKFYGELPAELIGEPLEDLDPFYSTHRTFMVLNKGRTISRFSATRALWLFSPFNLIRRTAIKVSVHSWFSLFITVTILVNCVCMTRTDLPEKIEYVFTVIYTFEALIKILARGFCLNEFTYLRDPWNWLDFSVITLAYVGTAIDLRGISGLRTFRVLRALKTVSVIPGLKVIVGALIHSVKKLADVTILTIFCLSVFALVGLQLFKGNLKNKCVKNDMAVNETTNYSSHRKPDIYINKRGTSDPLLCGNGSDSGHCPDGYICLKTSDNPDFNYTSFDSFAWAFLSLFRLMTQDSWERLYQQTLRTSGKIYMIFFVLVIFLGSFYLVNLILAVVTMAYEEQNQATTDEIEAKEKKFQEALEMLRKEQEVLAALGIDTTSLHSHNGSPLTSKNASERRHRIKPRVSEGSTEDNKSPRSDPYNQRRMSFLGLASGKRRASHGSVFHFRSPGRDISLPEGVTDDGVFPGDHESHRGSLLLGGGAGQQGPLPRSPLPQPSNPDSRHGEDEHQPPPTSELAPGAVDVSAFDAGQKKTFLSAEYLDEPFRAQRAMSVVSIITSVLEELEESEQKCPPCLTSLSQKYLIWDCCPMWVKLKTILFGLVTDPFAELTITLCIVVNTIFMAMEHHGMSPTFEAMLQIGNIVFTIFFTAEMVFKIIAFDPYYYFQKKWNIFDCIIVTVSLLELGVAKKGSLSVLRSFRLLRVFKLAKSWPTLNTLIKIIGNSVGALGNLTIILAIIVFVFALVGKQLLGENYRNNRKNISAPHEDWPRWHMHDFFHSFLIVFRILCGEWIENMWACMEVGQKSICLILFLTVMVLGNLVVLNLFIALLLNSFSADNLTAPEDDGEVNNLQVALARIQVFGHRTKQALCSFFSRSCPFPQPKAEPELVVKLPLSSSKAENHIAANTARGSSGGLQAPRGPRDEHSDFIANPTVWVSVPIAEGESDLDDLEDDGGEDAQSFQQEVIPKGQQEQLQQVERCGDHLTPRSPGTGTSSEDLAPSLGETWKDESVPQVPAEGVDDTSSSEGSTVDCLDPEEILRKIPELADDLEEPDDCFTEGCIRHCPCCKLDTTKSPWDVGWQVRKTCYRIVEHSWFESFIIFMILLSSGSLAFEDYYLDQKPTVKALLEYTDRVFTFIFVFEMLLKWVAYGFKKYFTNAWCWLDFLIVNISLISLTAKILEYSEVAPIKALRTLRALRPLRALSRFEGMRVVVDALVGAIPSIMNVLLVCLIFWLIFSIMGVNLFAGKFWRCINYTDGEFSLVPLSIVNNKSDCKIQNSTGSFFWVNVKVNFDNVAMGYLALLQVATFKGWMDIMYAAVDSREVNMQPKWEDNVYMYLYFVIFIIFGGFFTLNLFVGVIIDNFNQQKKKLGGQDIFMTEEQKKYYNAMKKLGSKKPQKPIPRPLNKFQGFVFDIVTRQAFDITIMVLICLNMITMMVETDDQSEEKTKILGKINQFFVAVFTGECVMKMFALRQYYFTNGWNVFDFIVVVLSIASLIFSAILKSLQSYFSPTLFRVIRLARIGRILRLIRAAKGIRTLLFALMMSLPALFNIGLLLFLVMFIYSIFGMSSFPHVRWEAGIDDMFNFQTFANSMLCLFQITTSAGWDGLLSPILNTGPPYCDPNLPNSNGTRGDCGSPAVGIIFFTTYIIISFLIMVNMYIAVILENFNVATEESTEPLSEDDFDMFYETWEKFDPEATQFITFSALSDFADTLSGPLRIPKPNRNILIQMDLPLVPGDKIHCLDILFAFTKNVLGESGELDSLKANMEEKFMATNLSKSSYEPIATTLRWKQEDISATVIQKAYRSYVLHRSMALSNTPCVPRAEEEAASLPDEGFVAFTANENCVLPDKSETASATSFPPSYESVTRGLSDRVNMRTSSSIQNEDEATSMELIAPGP

In the case of `Cc1nc(N2CCCC(F)(F)CC2)c(C(=O)Nc2cccc(S(N)(=O)=O)c2)cc1C(F)(F)F` [Compound D, reference compound], the “Human Plasma, Unbound %” value in data set [1] is 0.31%. The “Rat Plasma, Unbound %” value in data set [2] is listed as 0.31%.

What is called IC50 is the concentration at which inhibition is half-maximal. On to `C[S@@](=N)(=O)c1cc(NC(=O)c2cc(Cl)c(C(F)(F)F)cc2N2CCC(F)(F)CC2)ccn1` [Example 248, (R)-5-chloro-2-(4,4-difluoropiperidin-1-yl)-N-(2-(S-methylsulfonimidoyl)pyridin-4-yl)-4-(trifluoromethyl)benzamide], for which, in data set [3], the 50% inhibitory concentration (IC50) lay within 0.05 to 0.1 µM.

Turning to `Cc1c(C(F)(F)F)cnc(N2CCC(C(F)(F)F)CC2)c1C(=O)Nc1cccc([S@](C)(=N)=O)c1` [Example 242, (R)-4-methyl-N-(3-(S-methylsulfonimidoyl)phenyl)-5-(trifluoromethyl)-2-(4-(trifluoromethyl)piperidin-1-yl)nicotinamide], the concentration for half-maximal inhibition (IC50) in data set [3] lay in the range of 0.005 to 0.05 µM.

For `C[S@@](=N)(=O)c1cc(NC(=O)c2cc(Cl)c(C(F)(F)F)cc2N2CCC(C(F)(F)F)CC2)ccc1F` [Example 245, (R)-5-chloro-N-(4-fluoro-3-(S-methylsulfonimidoyl)phenyl)-4-(trifluoromethyl)-2-(4-(trifluoromethyl)piperidin-1-yl)benzamide], in data set [3], the half-inhibitory concentration (IC50) is 0.005 to 0.05 µM.

Consider `CS(=N)(=O)c1cccc(NC(=O)c2cc(C(F)(F)F)nnc2N2CCCC(F)(F)CC2)c1` (stereo not drawn) [Compound E], for which the “Rat Plasma, Unbound %” value in data set [2] turned out to be 37.8%. In addition, in data set [2] (ratio of unbound % sulfoximine / comparator sulfonamide), the “Fold increase vs Comparator (rat plasma unbound)” value is given as 2.4×.

In the case of `C[S@](=N)(=O)c1cc(NC(=O)c2cc(Cl)c(C(F)(F)F)cc2N2CCC(F)(F)CC2)ccc1F` [Example 249, (S)-5-chloro-2-(4,4-difluoropiperidin-1-yl)-N-(4-fluoro-3-(S-methylsulfonimidoyl)phenyl)-4-(trifluoromethyl)benzamide], the IC50 in data set [3] lay in the range of 0.05 to 0.1 µM.

As for `Cc1nc(N2CCCC(F)(F)CC2)c(C(=O)Nc2ccnc(S(N)(=O)=O)c2)cc1C(F)(F)F` [Compound A, reference compound], the “Human Plasma, Unbound %” value in data set [1] is on record as 0.24%. For the same compound, in data set [2], the “Rat Plasma, Unbound %” value came out at 0.52%.

Take `NS(=O)(=O)c1cccc(NC(=O)c2cc(C(F)(F)F)nnc2N2CCCC(F)(F)CC2)c1` [Compound B, reference compound]: in data set [1], the “Human Plasma, Unbound %” value worked out at 17.4%. For the same compound, in data set [2], the “Rat Plasma, Unbound %” value amounted to 15.8%.

Consider `Cc1c(C(=O)Nc2cccc([S@](C)(=N)=O)c2)c(N2CCCC(F)(F)CC2)nc(C2CC2)c1C(F)(F)F` [Example 224, (R)-6-cyclopropyl-2-(4,4-difluoroazepan-1-yl)-4-methyl-N-(3-(S-methylsulfonimidoyl)phenyl)-5-(trifluoromethyl)nicotinamide], for which the IC50 in data set [3] lay within 0.005 to 0.05 µM.

As to `Cc1c(C(F)(F)F)cnc(N2CCC(F)(F)CC2)c1C(=O)Nc1cccc([S@](C)(=N)=O)c1` [Example 241, (R)-2-(4,4-difluoropiperidin-1-yl)-4-methyl-N-(3-(S-methylsulfonimidoyl)phenyl)-5-(trifluoromethyl)nicotinamide], the IC50 in data set [3] was 0.005 to 0.05 µM.

As to `C[S@](=N)(=O)c1cc(NC(=O)c2cc(Cl)c(C(F)(F)F)cc2N2CCC(C(F)(F)F)CC2)ccn1` [Example 244, (S)-5-chloro-N-(2-(S-methylsulfonimidoyl)pyridin-4-yl)-4-(trifluoromethyl)-2-(4-(trifluoromethyl)piperidin-1-yl)benzamide], the concentration for half-maximal inhibition (IC50) in data set [3] was in the range of 0.05 to 0.1 µM.

For the compound `Cc1c(C(F)(F)F)cnc(N2CCO[C@@H](C(F)(F)F)C2)c1C(=O)Nc1ccnc([S@](C)(=N)=O)c1` [Example 239, 4-methyl-N-(2-((R)—S-methylsulfonimidoyl)pyridin-4-yl)-5-(trifluoromethyl)-2-((R)-2-(trifluoromethyl)morpholino)nicotinamide], in data set [3], the IC50 is over 0.2 µM.

With `C[S@@](=N)(=O)c1cccc(NC(=O)c2cc(Cl)c(C(F)(F)F)cc2N2CCC(F)(F)CC2)c1` [Example 222, (R)-5-chloro-2-(4,4-difluoropiperidin-1-yl)-N-(3-(S-methylsulfonimidoyl)phenyl)-4-(trifluoromethyl)benzamide], the half-inhibitory concentration (IC50) in data set [3] is 0.005 to 0.05 µM.

Regarding `Cc1c(C(=O)Nc2cccc([S@@](C)(=N)=O)c2)c(N2CCCC(F)(F)CC2)nc(C2CC2)c1C(F)(F)F` [Example 223, (S)-6-cyclopropyl-2-(4,4-difluoroazepan-1-yl)-4-methyl-N-(3-(S-methylsulfonimidoyl)phenyl)-5-(trifluoromethyl)nicotinamide], the IC50 in data set [3] is at most 0.005 µM.

Take `C[S@](=N)(=O)c1cc(NC(=O)c2cc(Cl)c(C(F)(F)F)cc2N2CCC(C(F)(F)F)CC2)ccc1F` [Example 246, (S)-5-chloro-N-(4-fluoro-3-(S-methylsulfonimidoyl)phenyl)-4-(trifluoromethyl)-2-(4-(trifluoromethyl)piperidin-1-yl)benzamide]: the IC50 in data set [3] lay in the range of 0.05 to 0.1 µM.

On to `C[S@](=N)(=O)c1cccc(NC(=O)c2cc(Cl)c(C(F)(F)F)cc2N2CCC(C(F)(F)F)CC2)c1` [Example 251, (S)-5-chloro-N-(3-(S-methylsulfonimidoyl)phenyl)-4-(trifluoromethyl)-2-(4-(trifluoromethyl)piperidin-1-yl)benzamide], for which the IC50 in data set [3] lay in the range of 0.05 to 0.1 µM.

As to `Cc1c(C(F)(F)F)cnc(N2CCO[C@H](C(F)(F)F)C2)c1C(=O)Nc1ccnc([S@](C)(=N)=O)c1` [Example 237, 4-methyl-N-(2-((R)—S-methylsulfonimidoyl)pyridin-4-yl)-5-(trifluoromethyl)-2-((S)-2-(trifluoromethyl)morpholino)nicotinamide], the IC50 in data set [3] fell in the range of 0.05 to 0.1 µM.

For the compound `Cc1c(C(F)(F)F)cnc(N2CCCC(F)(F)CC2)c1C(=O)N[C@H]1C[C@H](C(=O)O)C1` [Example 256, (trans)-3-(2-(4,4-difluoroazepan-1-yl)-4-methyl-5-(trifluoromethyl)nicotinamido)cyclobutane-1-carboxylic acid], in data set [3], the 50% inhibitory concentration (IC50) fell in the range of 0.05 to 0.1 µM.

Take `Cc1c(C(F)(F)F)cnc(N2CCCC(F)(F)CC2)c1C(=O)N[C@H]1C[C@@H](C(N)=O)C1` [Example 259, N-((cis)-3-carbamoylcyclobutyl)-2-(4,4-difluoroazepan-1-yl)-4-methyl-5-(trifluoromethyl)nicotinamide]: in data set [3], the concentration for half-maximal inhibition (IC50) lay in the range of 0.05 to 0.1 µM.

On to `Cc1nc(N2CCCC(F)(F)CC2)c(C(=O)Nc2ccnc(S(N)(=O)=O)c2)cc1Cl` [Compound C, reference compound], for which, in data set [1], the “Human Plasma, Unbound %” value came out at 0.53%. In addition, the “Rat Plasma, Unbound %” value in data set [2] is on record as 1.62%.

On to `C[S@@](=N)(=O)c1cc(NC(=O)c2cc(Cl)c(C(F)(F)F)cc2N2CCC(F)(F)CC2)ccc1F` [Example 254, (R)-5-chloro-2-(4,4-difluoropiperidin-1-yl)-N-(4-fluoro-3-(S-methylsulfonimidoyl)phenyl)-4-(trifluoromethyl)benzamide], for which, in data set [3], the IC50 was in the range of 0.005 to 0.05 µM.

On to `Cc1c(C(=O)Nc2ccnc([S@](C)(=N)=O)c2)c(N2CCCC(F)(F)CC2)nc(C2CC2)c1C(F)(F)F` [Example 220, (R)-6-cyclopropyl-2-(4,4-difluoroazepan-1-yl)-4-methyl-N-(2-(S-methylsulfonimidoyl)pyridin-4-yl)-5-(trifluoromethyl)nicotinamide], for which the concentration for half-maximal inhibition (IC50) in data set [3] lay within 0.005 to 0.05 µM.
